# Values joined by “and” are separate entries in the source; they are usually repeats but may differ in a detail not shown here. Equal values may be shown once.
# Tests used:
# [1] = system: Patienten mit Hyperlipoproteinämie; experiment: 24-hour long-term ECG: arrhythmia frequency under placebo (control) and under verum; type: in vivo
# Description: Von allen 42 Patienten wurde mittels Oxfolg-Medilog II Registriergeräten ein 24-Stunden-Langzeit-EKG sowohl in der Verum- als auch in der Placebophase registriert.
# Die Bänder wurden ohne Kenntnis der Therapie unter Verwendung eines Reynolds Pathfinder-Analysesytems ausgewertet, dessen Sensitivität zur Identifikation von QRS-Komplexion bei 99 %, zur Erkennung ventrikulärer Extrasystolen bei 96 % lag. Neben den normalen und extrasystolischen QRS-Komplexen wurden auch die folgenden Arrhythmieformen quantitativ erfaßt: supraventrikuläre Extrasystolen, supraventrikuläre Tachykardien, ventrikuläre Extrasystolen, R/T-Phänomene,gepaarte ventrikuläre Extrasystolen, mehrere hintereinander auftretende ventrikuläre Extrasystolen, Kammertachykardien, ventrikuläre Bigemini und Asystolien. Darüber hinaus wurden erfaßt Phasen intermittierenden Vorhofflimmerns, intermittierende Schenkelblockbilder und das Herzfrequenzverhalten.
# Die stündliche Häufigkeit der verschiedenen Rhythmusstö-rungen wurden erfaßt und auf einem Computerausdruck dokumentiert. Die Analyse wurde korrigiert, indem der Vorgang jedes Mal unterbrochen wurde, wenn eine ventrikuläre Extrasystole erkannt wurde. Diese wurde dann jeweils 1 : 1 auf EKG-Papier ausgeschrieben und durch den Untersucher verifiziert. Im Falle der falsch positiven Erkennung eines Ereignisses wurde der Computerausdruck entsprechend korrigiert. Dadurch wurde die positive Korrektheit der Analyse auf 100 % gesteigert. In Tabelle 3 sind die korri gierten Ergebnisse wiedergegeben.
# Bei der relativen Seltenheit komplexer tachykarder ventrikulärer Rhythmusstörungen im untersuchten Kollektiv wurde eine Bewertung des Therapieeffektes lediglich für die ventrikulären Extrasystolen vorgenommen. Hierbei ließ sich die Frage nach einem möglichen paradoxen arrhythmogenen Effekt naturgemäß für alle Patienten beantworten, die Frage nach einem antiarrhythmischen Effekt dagegen nur bei den Patienten, deren spontane Arrhythmiehäufigkeit in der Placebophase eine gewisse Häufigkeit überschritt. Hierfür wurde willkürlich eine Grenze von wenigstens einer Extrasystole/Stunde, entsprechend 24 in 24 Stunden, gefordert.
# Als Hinweis auf einen möglichen paradoxen arrhythmogenen Effekt des Medikaments werteten wir eine Zunahme der Extrasystoliehäufigkeit gegenüber Placebo um wenigstens 150 %. Als Hinweis auf einen möglichen antiarrhythmischen Effekt werteten wir eine Abnahme der spontanen Extrasystoliehäufigkeit um wenigstens 60 %, als Hinweise auf einen wahrscheinlichen antiarrhythmischen Effekt eine Abnahme der Extrasystoliehäufigkeit um wenigstens 75 %.
# [2] = system: Patienten mit Hyperlipoproteinämie; experiment: 12-lead standard ECG: QT time and heart rate in verum and placebo phases of a controlled study; type: in vivo
# Description: Je ein 12-Ableitungs-Standard-EKG wurde registriert. • 1. In der Placebophase • 2. In der Verumphase nach 12 Wochen • 3. In der Verumphase nach 24 Wochen • 4. In der Placebophase 42 Tage nach Absetzen von Probucol
# Für jede der Aufzeichnungen wurde jeweils die frequenzkorrigierte QT-Zeit ermittelt (Bazett-Formula).
# Unter Verwendung des Wilcoxon-Tests für verbundene Stichproben wurde geprüft, ob ein signifikanter Unterschied der QT-Dauer zwischen den Placebophasen und den Verumphasen besteht.
# [3] = system: Patienten mit Hyperlipoproteinämie; details: in vivo
# Description: Bei 42 Patienten mit Hyperlipoproteinämie wurde im Rahmen einer kontrollierten Studie die Wirkung von Probucol gegen Placebo geprüft.
# [4] = number out of 17 patients with more than 1 VES/h under placebo
structure (smiles),measurement,setting,value
CC(C)(Sc1cc(C(C)(C)C)c(O)c(C(C)(C)C)c1)Sc1cc(C(C)(C)C)c(O)c(C(C)(C)C)c1 [Probucol],Patienten mit Abnahme der Extrasystolie um wenigstens 60 %,[1]; further patients out of the 8 with more than 15 VES/h spontaneous frequency,Drei
same,komplexe tachykarde ventrikuläre Rhythmusstörungen unter Therapie,[1]; in the 3 patients with paradoxical arrhythmogenic effect,Bei keinem der 3 Patienten
same,Patienten mit signifikanter Zunahme der spontanen Arrhythmiehäufigkeit unter Probucol (paradoxe arrhythmogene Wirkung),[1]; in vivo,3
same,ventrikulärer Bigeminus,[1]; in vivo,"bei einem Patienten unter Verum, jedoch nicht unter Placebo"
same,Abnahme der Extrasystoliefrequenz,[1]; individual values of the 8 patients with more than 15 VES/h spontaneous frequency,60% and 66% and 69% and 89% and 90% and 94% and 95% and 100%
same,Patienten mit statistisch signifikanter Abnahme der Extrasystoliefrequenz um mehr als 75 %,[1]; number out of 8 patients with more than 15 VES/h spontaneous frequency,5
same,Patienten mit Reduktion der Extrasystolen unter Therapie über 75 %,[1]; [4],7
same,Patienten mit Reduktion der Extrasystolen zwischen 60 und 75 %,[1]; [4],3
same,"Patienten mit Reduktion der spontanen Extrasystoliefrequenz, die auf eine antiarrhythmische Wirkung hinweist","[1]; share of the 17 patients with more than 1 VES/h under placebo, reduction of at least 60 %",59%
same,Verlängerung der frequenzkontrollierten QT-Zeit,"[2]; 1000 mg daily, versus placebo",ca. 5%
same,Verum-2 F Mittelw.,"[2]; mean, N 41, phase Verum-2","64,32"
same,Verum-2 QT Mittelw.,"[2]; mean, N 41, phase Verum-2","0,40"
same,Verum-4 F Mittelw.,"[2]; mean, N 41, phase Verum-4","66,49"
same,Verum-4 QT Mittelw.,"[2]; mean, N 41, phase Verum-4","0,38"
same,frequenzkorrigierte QT-Zeit unter Probucol im Vergleich zu den Placebophasen,"[2]; therapy phase 1 or 2 versus placebo phase 1 or 2, p = 0.002, Wilcoxon test",signifikant verlängert
same,Nebenwirkungen,[3],"gelegentlich Durchfall, Bauchschmerzen und Kopfschmerzen"
